The target in test [1] is T1, Orco 28 + Orco (Anopheles gambiae, UniProt Q7QCC7).
T1 construct: expressed in transfected cells
T1 sequence (Q7QCC7 1-478): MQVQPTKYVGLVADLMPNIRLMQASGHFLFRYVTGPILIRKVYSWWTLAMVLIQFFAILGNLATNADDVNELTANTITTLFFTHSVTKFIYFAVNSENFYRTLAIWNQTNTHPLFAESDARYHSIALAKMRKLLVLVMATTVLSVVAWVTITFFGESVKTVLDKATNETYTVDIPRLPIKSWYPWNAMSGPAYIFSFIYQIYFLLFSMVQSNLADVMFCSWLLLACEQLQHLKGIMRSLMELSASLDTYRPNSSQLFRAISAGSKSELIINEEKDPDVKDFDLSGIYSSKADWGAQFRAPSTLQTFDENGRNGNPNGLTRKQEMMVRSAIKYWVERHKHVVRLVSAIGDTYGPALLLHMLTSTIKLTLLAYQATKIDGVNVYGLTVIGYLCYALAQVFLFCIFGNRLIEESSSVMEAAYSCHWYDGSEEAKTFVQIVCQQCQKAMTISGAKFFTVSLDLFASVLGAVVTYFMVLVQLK
Kind of test: Orco 28 + Orco: agonist / antagonist / potentiator screen (Table 1). Type of test: cell-based. Particulars: for Orco 28 + Orco Potentiator % increase: potentiator mode; for Orco 28 + Orco Antagonist % Reduction: antagonist mode. As to the method:
(§1) The activity against insect odorant sensory receptors was evaluated for various disclosed compounds, and the data were collected in Table 1.

Another test deals with T2, AgORco+AgOR10 (Anopheles gambiae, UniProt Q7QCC7).
T2 construct: expressed in transfected cells
T2 sequence (Q7QCC7 1-478): T1 sequence (Q7QCC7 1-478)
Put plainly: Fluo-4 Ca2+ imaging, HEK293 cells expressing Orco+AgOR10. In kind it is cell-based. Particulars: for Orco 10 + Orco Potentiator % increase: potentiator mode; for Orco 10 + Orco Angatonist % Reduction: antagonist mode. The arrangement: Orco 10 + Orco Angatonist % Reduction / Orco 10 + Orco Agonist % of control: concentration or dose not given beside the values. The source says: (§2) For transient transfections, ORs were cloned into pCl (Promega) and transfected into Flp-In™ T-REx™293 cell lines (Invitrogen) with Fu GENE6 (Roche). For the creation of stable cell lines, a cell culture expression vector capable of expressing Orco in conjunction with a conventional OR, pcDNA5/FRT/TO (Invitrogen) was modified to create two individual expression cassettes each under the control of a separate CMV/Tet02 promoter and a BGH poly-adenylation signal. Cells (as above) were transfected with the modified pcDNA5 plasmid along with POG44 (a Flp recombinase expression plasmid) to facilitate site-specific recombination. Stable cell lines were selected using Hygromycin B (Invitrogen). Cells were maintained in DMEM (Invitrogen) supplemented with 10% Tetracycline-free FBS (HyClone) and 15 ng/ml Blasticidin. For fluorometric Ca2+ measurements, stable lines expressing ORs of interest were seeded at 20,000 cells/well in black wall, poly-lysine coated 384-well cell culture plates (Greiner) and treated with […] tetracycline (Sigma) overnight to induce OR expression. Cells were dye-loaded with 1.8 uM Fluo-4 AM (Molecular Probes), 2.5 mM Probenecid (Molecular Probes) in assay buffer (20 mM HEPES, IX HBSS) for 45 minutes at 37° C. in 5% CO2 prior to each assay. Ca^2+ mobilization was assayed in an FDSS6000 (Hamamatsu). Baseline readings were taken for 20 s before automated addition of compound previously diluted in DMSO and assay buffer. Ratios were described as Maximum/Minimum response and each response was normalized to the maximum responder.
As part of an ongoing, cell based calcium imaging screen for novel small-molecule modulators of AgORs that might disrupt olfactory-driven mosquito behaviors (Rinker et al manuscript in preparation), the inventors identified a number of compounds that activated AgOR10+AgORco-expressing human embryonic kidney (HEK293) cells. One of these compounds, (FIG. 3 A) denoted here as VUAA1, elicited activity consistent with allosteric agonism and was pursued for its novel properties. The identity of VUAA1 was verified using high-resolution mass spectrometry (HRMS) as well as ^1H and ^13C NMR. […] As AgORco was the common element among these functional responses, the inventors postulated that VUAA1 was a potential AgORco agonist.

For test [2], the target named is T1, Orco 28 + Orco. Put plainly: Ca2+ imaging, cells expressing Orco + OR28 (Table 1 head "Orco 28 + Orco"). Type of test: cell-based. Particulars: for Orco 28 + Orco Potentiator % increase: potentiator mode; for Orco 28 + Orco Antagonist % Reduction: antagonist mode. As to the method: as §1
The test system of test [3] is An. gambiae early 4th instar larvae. Kind of test: Larval mosquito movement assay (Daniovision-Ethovision). Type of test: in vivo, Anopheles gambiae. The note with it: for larval behavioral (movement) response: compared with DMSO controls or VUAA1; for threshold concentration for increased larval movement: movements over 5-minute period. As to the method:
Next, the agonist activity of the VUAA compound class was tested to establish the involvement of AgORs in mediating larval ortho and klinokinesis in response to a series of semiochemicals using larval-stage An. gambiae mosquitoes. Mosquito larvae are aquatic, thus compounds can be delivered to individual early 4th instar larvae regardless of volatility. The assay currently utilizes 6-well plates and the Daniovision-Ethovision platform (Noldus Inc.) to simultaneously record and analyze 6 larvae, thereby providing modest rates of throughput and a high degree of reproducibility. In these assays, larval movements are automatically quantified over 5-minute period and control larvae consistently move the same number of times in the presence or absence of 0.1% DMSO (p=0.80, n=31) (FIGS. 42-43). Furthermore, the effects of the widely-used synthetic insect repellent N, N-diethyl-meta-toluamide (DEET) was tested and DEET was also observed to increase larval movements at and above a threshold concentration of 5×10^−4M (p=0.013, n=27) (FIGS. 42-43).

The next test concerns the target T3, AgOrco+AgOR65 (Anopheles gambiae, UniProt Q7QCC7).
T3 construct: expressed in transfected cells
T3 sequence (Q7QCC7 1-478): T1 sequence (Q7QCC7 1-478)
Put plainly: Ca2+ imaging, HEK cells expressing AgOrco+AgOR65. In kind it is cell-based. Particulars: for EC50: heteromeric OR channels AgOrco+AgOR65, read-out: EC50.
Excerpt: as §2
For VUAA0, a single methyl from the para position of the aniline ring (compound VUAA0, FIG. 44) in the VUAA1 structure was removed. […] In VUAA0.5, unsaturation was introduced at the para position of the aniline ring (VUAA0.5, FIG. 44). […] In VUAA2, the ethyl group of the aniline ring in VUAA1 was replaced with an isopropyl group (VUAA2, FIG. 44).

Another test deals with T4, AgORco+AgOR48 (Anopheles gambiae, UniProt Q7QCC7).
T4 construct: expressed in transfected cells
T4 sequence (Q7QCC7 1-478): T1 sequence (Q7QCC7 1-478)
Kind of test: Ca2+ imaging, HEK cells expressing AgORco+AgOR48. In kind it is cell-based. The note with it: AgORco co-expressed with AgOR48; read-out: EC50.
Excerpt: as §2
The ability of VUAA1 and its analogs to agonize representative ORco proteins from dipteran (Anopheles gambiae, AgORco), lepidopteran (Heliothis virescens, HvORco) and hymenopteran (Harpegnathos saltator, HsORco) orders was tested. […] Furthermore, the hierarchy of VUAA series potency was the same, irrespective of whether AgORco was co-expressed with AgOR65 or AgOR48 tuning ORs (FIG. 45). Without wishing to be bound by a particular theory, odorant ligands are thought to activate the complex via interaction with the tuning ORx and thereby affect ORco/ORx channel properties. […] These findings indicate VUAA-class OR co-modulators are viable compounds for further development as broad-spectrum insect control strategies, and VUAA4 can provide an advance in the pharmacological profile of VUAA-based compounds.

Turning to `CCn1c(SCc2nc3ccccc3[nH]2)nnc1-c1cccnc1`, at Orco 28 + Orco [1], the “Orco 28 + Orco Potentiator % increase” value came to 15.1%. The “Orco 10 + Orco Potentiator % increase” value at AgORco+AgOR10 (10 + Orco) was found to be 7.5%.

With `CCn1c(SCC(=O)NCc2ccco2)nnc1-c1cccnc1`, at Orco 28 + Orco [1], the “Orco 28 + Orco Antagonist % Reduction” value came out at 10.89%. At AgORco+AgOR10 (10 + Orco), the “Orco 10 + Orco Potentiator % increase” value is 10.23%. Consider `CCOc1ccccc1-n1c(SCC(N)=O)nnc1-c1cccnc1`, for which, at Orco 28 + Orco [2], the “Orco 28 + Orco Potentiator % increase” value is 14.71%. For the compound `O=C(CSc1nnc(-c2cccnc2)n1CCc1ccccc1)NCc1ccccc1`, the “Orco 28 + Orco Potentiator % increase” value at Orco 28 + Orco [2] is 15.9%. For the compound `CCn1c(SCC(=O)Nc2ccc(C)cc2)nnc1-c1cccnc1` [VUAA0, 2-((4-ethyl-5-(pyridin-3-yl)-4H-1,2,4-triazol-3-yl)thio)-N-(p-tolyl)acetamide], the “larval behavioral (movement) response” value in test [3] is listed as “lower”. Further, on AgOrco+AgOR65, the concentration giving a half-maximal response (EC50) was 3400 µM. Regarding `CCN(CC)C(=O)c1cccc(C)c1` [DEET, N, N-diethyl-meta-toluamide, reference compound], the “threshold concentration for increased larval movement” value in test [3] is 500000 nM.

As to `CCn1c(SCC(=O)C(C)(C)C)nnc1-c1cccnc1`, the “Orco 28 + Orco Potentiator % increase” value on Orco 28 + Orco [1] is 17.24%. Besides, the “Orco 10 + Orco Potentiator % increase” value at AgORco+AgOR10 (10 + Orco) was 12.1%. `CC(C)c1ccc(NC(=O)CSc2nnc(-c3ccncc3)n2C2CC2)cc1` [VUAA4, 2-((4-cyclopropyl-5-(pyridin-4-yl)-4H-1,2,4-triazol-3-yl)thio)-N-(4-isopropylphenyl)acetamide]: in test [3] (10^−5M), the “larval movement at the highest concentration” value is recorded as “Reduced larval movement”. Further, the larval movement response entry in test [3] (10^−8M) is recorded as “absence of response”. In test [3], the “larval behavioral (movement) response” value is recorded as “higher levels of movement” and the threshold concentration for increased larval movement worked out at 1 nM. The “lower response threshold compared to VUAA1” value in test [3] (in vivo) came out at 5 fold. Further, on AgOrco+AgOR65 (AgOrco+AgOR65), the “improvement in agonist potency compared to VUAA1” value worked out at 10 fold and the “maximum response relative to earlier VUAA compounds” value is listed as “additional improvement in the maximum response when compared to VUAA1”. The EC50 on AgOrco+AgOR65 turned out to be 2.1 µM. Besides, the EC50 at AgORco+AgOR48 came to 1.7 µM.

`C=Cc1ccc(NC(=O)CSc2nnc(-c3cccnc3)n2CC)cc1` [VUAA0.5, 2-((4-ethyl-5-(pyridin-3-yl)-4H-1,2,4-triazol-3-yl)thio)-N-(4-vinylphenyl)acetamide]: the “larval behavioral (movement) response” value in test [3] is listed as “comparable to DMSO controls”. The EC50 at AgOrco+AgOR65 came out at 110 µM. In the case of `Cn1c(SCC(=O)Nc2ccc(F)cc2)nnc1-c1cccnc1`, on Orco 28 + Orco [1], the “Orco 28 + Orco Antagonist % Reduction” value is reported as 11.09%. Take `Cc1ccc(NC(=O)CSc2nnc(-c3cccnc3)n2C)c(C)c1`: at Orco 28 + Orco [1], the “Orco 28 + Orco Potentiator % increase” value is reported as 12.63%. As to `CC(=O)n1ccc2ccc(C(=O)CSc3nnc(-c4cccnc4)n3C)cc21`, the “Orco 28 + Orco Antagonist % Reduction” value on Orco 28 + Orco [1] is listed as 13.76%. As to `NC(=O)CSc1nnc(-c2cccnc2)n1-c1ccccc1`, at Orco 28 + Orco [2], the “Orco 28 + Orco Potentiator % increase” value was 15.18%. Consider `CCn1c(SCC(=O)Nc2ccc(C(C)C)cc2)nnc1-c1cccnc1` [VUAA2, 2-((4-ethyl-5-(pyridin-3-yl)-4H-1,2,4-triazol-3-yl)thio)-N-(4-isopropylphenyl)acetamide], for which the “larval behavioral (movement) response” value in test [3] is listed as “not observed to elicit larval responses greater than VUAA1”. In addition, the half-maximal effective concentration (EC50) at AgOrco+AgOR65 was determined as 9.2 µM. Regarding `Clc1ccc(-n2c(SC/C=C/c3ccccc3)nnc2-c2cccnc2)cc1`, the “Orco 28 + Orco Antagonist % Reduction” value at Orco 28 + Orco [2] was found to be 20.56%. Moreover, at AgORco+AgOR10 (Orco 10 + Orco), the “Orco 10 + Orco Potentiator % increase” value was 48.08%. Take `C=CCn1c(SCc2cc3c(cc2Cl)OCO3)nnc1-c1cccnc1`: at Orco 28 + Orco [1], the “Orco 28 + Orco Antagonist % Reduction” value is reported as 16.91%.

Take `O=C(CSc1nnc(-c2cccnc2)n1-c1ccc(Br)cc1)c1c[nH]c2ccccc12`: the “Orco 28 + Orco Potentiator % increase” value on Orco 28 + Orco [2] amounted to 19.9%. With `CCOc1ccccc1-n1c(SCC(=O)c2cccc([N+](=O)[O-])c2)nnc1-c1cccnc1`, the “Orco 28 + Orco Antagonist % Reduction” value on Orco 28 + Orco [2] came out at 25.53%. Moreover, the “Orco 10 + Orco Angatonist % Reduction” value at AgORco+AgOR10 (Orco 10 + Orco) is 22.28%. Take `Cn1c(SCC(=O)Nc2ccc(Br)cc2)nnc1-c1cccnc1`: the “Orco 28 + Orco Potentiator % increase” value at Orco 28 + Orco [1] amounted to 11.23%. As to `CCc1cccc(CC)c1-n1c(SCn2nnc3ccccc3c2=O)nnc1-c1cccnc1`, the “Orco 28 + Orco Antagonist % Reduction” value at Orco 28 + Orco [2] is 22.91%. Also, the “Orco 10 + Orco Angatonist % Reduction” value at AgORco+AgOR10 (Orco 10 + Orco) stood at 25.00%. `Cc1cc(C)c(C(=O)CSc2nnc(-c3cccnc3)n2C)c(C)c1`: the “Orco 28 + Orco Antagonist % Reduction” value at Orco 28 + Orco [1] came to 18.21%. With `COC(=O)c1ccccc1NC(=O)CSc1nnc(-c2cccnc2)n1C`, on Orco 28 + Orco [1], the “Orco 28 + Orco Potentiator % increase” value worked out at 18.02%. At AgORco+AgOR10 (10 + Orco), the “Orco 10 + Orco Potentiator % increase” value is 15.15%. On to `O=C(CSc1nnc(-c2cccnc2)n1Cc1ccccc1)Nc1ccc(F)cc1`, for which, on Orco 28 + Orco [2], the “Orco 28 + Orco Potentiator % increase” value came to 16.12%.

The term EC50 denotes the concentration needed to bring the measured effect to its halfway point.

These data come from patent US11484032B2, “Compositions for inhibition of insect sensing” (Vanderbilt University, priority 2011, dated 2022).
